Test results reported in ChEMBL document CHEMBL3407458, “Design and synthesis of pyrazole-oxindole conjugates targeting tubulin polymerization as new anticancer agents” (Eur J Med Chem, 2015).
Calls of active or inactive are those of the source. The rule behind the calls is not given here.

What was measured:
[1] = system: HeLa; assay: Cytotoxicity against human HeLa cells assessed as cell viability after 48 hrs by MTT assay; format: functional, cell-based
[2] = system: A549; assay: Cytotoxicity against human A549 cells assessed as cell viability after 48 hrs by MTT assay; format: functional, cell-based; details: A549, 48 h
[3] = system: MCF7; assay: Cytotoxicity against human MCF7 cells assessed as cell viability after 48 hrs by MTT assay; format: functional, cell-based; details: MCF7, 48 h
[4] = system: DU-145; assay: Cytotoxicity against human DU145 cells assessed as cell viability after 48 hrs by MTT assay; format: functional, cell-based; details: DU-145, 48 h
[5] = system: HeLa; assay: Antimitotic activity against human HeLa cells assessed as cells accumulation at G2/M phase at 5 uM after 24 hrs by Propidium iodide staining based FACS/flow cytometry (reference value: 17.68%); format: functional
[6] = system: HeLa; assay: Antimitotic activity against human HeLa cells assessed as cells accumulation at G2/M phase at 10 uM after 24 hrs by Propidium iodide staining based FACS/flow cytometry (reference value: 17.68%); format: functional
[7] = system: HeLa; assay: Antimicrotubule activity in human HeLa cells assessed as metaphase arrest at 5 uM after 24 hrs by immunohistochemistry; format: functional, cell-based
[8] = target: Tubulin (Bos taurus) (UniProt Q6B856+Q862L2+Q862F3); assay: Inhibition of bovine brain tubulin polymerization by fluorescence based tubulin polymerization assay
[9] = system: HeLa; assay: Antimicrotubule activity in human HeLa cells assessed as multipolar spindle fiber at 5 uM after 24 hrs; format: functional, cell-based
[10] = species on record: Danio rerio; assay: Delay in development of wild type zebrafish embryo at 25 uM observed 28 hpf by stereomicroscopy; format: functional, organism-based

INH [8] [µM] | SMILES | IC50 [1] [µM] | IC50 [2] [µM] | IC50 [3] [µM] | IC50 [4] [µM] | Activity [5] [%] | Activity [6] [%] | Activity [7] | Activity [9] | Activity [10]
9.2 | COc1ccc(-c2cc(/C=C3\C(=O)Nc4ccc(OC)cc43)[nH]n2)cc1 | 7.1 | 8 | 6 | 9 | 60.19 | 60.38 | Active |  | 
15.3 | COc1cc(-c2cc(/C=C3\C(=O)Nc4ccc([N+](=O)[O-])cc43)[nH]n2)cc(OC)c1OC | 30 | 22 | 16 | 20 |  |  |  |  | 
14.5 | O=C1Nc2cc(Cl)ccc2/C1=C/c1cc(-c2ccc3c(c2)OCO3)n[nH]1 | 7.3 | 27 | 18 | 24 |  |  |  |  | 
22.1 | COc1ccc2c(c1)/C(=C/c1cc(-c3ccc(OC)c(OC)c3)n[nH]1)C(=O)N2 | 13 | 15 | 32 | 34 |  |  |  |  | 
24 | O=C1Nc2ccc(F)cc2/C1=C/c1cc(-c2ccc3c(c2)OCO3)n[nH]1 | 32 | 26 | 36 | 21 |  |  |  |  | 
18 | COc1cc(-c2cc(/C=C3\C(=O)Nc4ccccc43)[nH]n2)cc(OC)c1OC | 21 | 21 | 27 | 35 |  |  |  |  | 
22.4 | COc1cc(-c2cc(/C=C3\C(=O)Nc4cc(Cl)ccc43)[nH]n2)cc(OC)c1OC | 11 | 33 | 22 | 27 |  |  |  |  | 
12 | COc1ccc2c(c1)/C(=C/c1cc(-c3ccc4c(c3)OCO4)n[nH]1)C(=O)N2 | 13.5 | 24 | 9.8 | 34 |  |  |  |  | 
16 | COc1ccc2c(c1)/C(=C/c1cc(-c3cc(OC)c(OC)c(OC)c3)n[nH]1)C(=O)N2 | 16 | 33 | 8.8 | 9.1 |  |  |  |  | 
8.1 | COc1ccc(-c2cc(/C=C3\C(=O)Nc4ccc(Cl)cc43)[nH]n2)cc1 | 5 | 6 | 9.3 | 4 | 69.01 | 72.75 |  | Active | Active
25.3 | COc1cc(-c2cc(/C=C3\C(=O)Nc4ccc(Cl)cc43)[nH]n2)cc(OC)c1OC | 12 | 27 | 44 | 21 |  |  |  |  | 
5.9 | COc1ccc(-c2cc(/C=C3\C(=O)Nc4cc(Cl)ccc43)[nH]n2)cc1 | 2.4 | 3 | 3.6 | 3 | 71.2 | 77.6 |  | Active | Active
21 | COc1ccc(-c2cc(/C=C3\C(=O)Nc4ccc([N+](=O)[O-])cc43)[nH]n2)cc1 | 33 | 22 | 24 | 26 |  |  |  |  | 
33.8 | COc1ccc(-c2cc(/C=C3\C(=O)Nc4ccc(Cl)cc43)[nH]n2)cc1OC | 10 | 24 | 16 | 21 |  |  |  |  | 
18.9 | COc1ccc(-c2cc(/C=C3\C(=O)Nc4cc(Cl)ccc43)[nH]n2)cc1OC | 11 | 18 | 27 | 13.9 |  |  |  |  | 
38.9 | COc1ccc(-c2cc(/C=C3\C(=O)Nc4ccccc43)[nH]n2)cc1 | 18 | 14 | 15 | 21 |  |  |  |  | Active
18 | COc1ccc(-c2cc(/C=C3\C(=O)Nc4ccc([N+](=O)[O-])cc43)[nH]n2)cc1OC | 36 | 42 | 42 | 28 |  |  |  |  | 
14.7 | O=C1Nc2ccc([N+](=O)[O-])cc2/C1=C/c1cc(-c2ccc3c(c2)OCO3)n[nH]1 | 24 | 37 | 17 | 36 |  |  |  |  | 
35.3 | O=C1Nc2ccc(Cl)cc2/C1=C/c1cc(-c2ccc3c(c2)OCO3)n[nH]1 | 12 | 29 | 44 | 24 |  |  |  |  | 
23 | COc1ccc(-c2cc(/C=C3\C(=O)Nc4ccccc43)[nH]n2)cc1OC | 21 | 29 | 36 | 31 |  |  |  |  | 
25 | COc1ccc(-c2cc(/C=C3\C(=O)Nc4ccc(F)cc43)[nH]n2)cc1 | 22 | 29 | 36 | 25 |  |  |  |  | 

SMILES | INH [8] [µM] | IC50 [1] [µM] | IC50 [2] [µM] | IC50 [3] [µM] | IC50 [4] [µM] | Activity [5] [%] | Activity [6] [%] | Activity [7] | Activity [9] | Activity [10]
COC(=O)Nc1nc2cc(C(=O)c3cccs3)ccc2[nH]1 [NOCODAZOLE] | 2.2 | 1.1 | 0.89 | 1.7 | 3.2 |  |  |  |  | Active
